Source: patent US20220073554A1, “LINCOSAMIDE ANTIBIOTICS AND USES THEREOF” (President and Fellows of Harvard College, priority 2017, published 2022)
Converted amounts (≈) assume the structure as drawn. Like-named read-outs stand apart in the source and are kept apart here.

Experiments:
Type in all cases: cell-based
[1] = tested on: S. aureus MP-549 msr(a) USA 300; assay: MIC against S. aureus MP-549 msr(a) USA 300; details: Staphylococcus aureus, USA300, S. aureus MP-549 msr(a) USA 300
[2] = tested on: S. aureus BAA 977 iErmA; assay: MIC against S. aureus BAA 977 iErmA; details: Staphylococcus aureus, BAA977
[3] = tested on: S. aureus MP-513 clinical cErm; assay: MIC against S. aureus MP-513 clinical cErm; details: Staphylococcus aureus
[4] = tested on: E. coli ATCC 25922; assay: MIC against E. coli ATCC 25922; details: Escherichia coli, ATCC25922
[5] = tested on: P. aeruginosa ATCC 27853; assay: MIC against P. aeruginosa ATCC 27853; details: Pseudomonas aeruginosa, ATCC27853
[6] = tested on: E. coli MP-9 ΔTolC; assay: MIC against E. coli MP-9 ΔTolC; details: Escherichia coli
[7] = tested on: K. pneumoniae ATCC 10031; assay: MIC against K. pneumoniae ATCC 10031; details: Klebsiella pneumoniae, ATCC10031
[8] = tested on: S. pyogenes ATCC 19615; assay: MIC against S. pyogenes ATCC 19615; details: Streptococcus pyogenes, ATCC19615; S. pyogenes ATCC 19615; read-out: MIC
[9] = tested on: S. aureus MMX 3035 cErmA; assay: MIC against S. aureus MMX 3035 cErmA; details: Staphylococcus aureus, MMX3035CERMA
[10] = tested on: P. aeruginosa MMX 3476 Δmex; assay: MIC against P. aeruginosa MMX 3476 Δmex; details: Pseudomonas aeruginosa
[11] = tested on: E. coli MMX TolC parent strain; assay: MIC against E. coli MMX TolC parent strain; details: Escherichia coli
[12] = tested on: S. pneumoniae MMX 3031 cMefA; assay: MIC against S. pneumoniae MMX 3031 cMefA; details: Streptococcus pneumoniae, MMX3031CMEFA
[13] = tested on: E. faecalis ATCC 29212; assay: MIC against E. faecalis ATCC 29212; details: Enterococcus faecalis, ATCC29212, read-out: MIC
[14] = tested on: P. aeruginosa MMX Mex parent strain; assay: MIC against P. aeruginosa MMX Mex parent strain; details: Pseudomonas aeruginosa
[15] = tested on: C. difficile BAA 1805; assay: MIC against C. difficile BAA 1805; details: Clostridioides difficile, BAA1805; C. difficile BAA 1805; read-out: MIC
[16] = tested on: S. pyogenes MMX 946 Macrolide-Resistant; assay: MIC against S. pyogenes MMX 946 Macrolide-Resistant; details: Streptococcus pyogenes
[17] = tested on: B. fragilis ATCC 25285; assay: MIC against B. fragilis ATCC 25285; details: Bacteroides fragilis, ATCC25285; B. fragilis ATCC 25285; read-out: MIC
[18] = tested on: E. faecalis MMX 847 Macrolide-Resistant; assay: MIC against E. faecalis MMX 847 Macrolide-Resistant; details: Enterococcus faecalis
[19] = tested on: S. pneumoniae ATCC 49619; assay: MIC against S. pneumoniae ATCC 49619; details: Streptococcus pneumoniae, ATCC49619; S. pneumoniae ATCC 49619; read-out: MIC
[20] = tested on: S. aureus ATCC 29213; assay: MIC against S. aureus ATCC 29213; details: Staphylococcus aureus, ATCC29213, S. aureus ATCC 29213; read-out: MIC
[21] = tested on: S. pneumoniae MMX 3028 cErmB; assay: MIC against S. pneumoniae MMX 3028 cErmB; details: Streptococcus pneumoniae, MMX3028CERMB; S. pneumoniae MMX 3028 cErmB; read-out: MIC
[22] = tested on: E. coli ATCC 15922; assay: MIC against E. coli ATCC 15922; details: Escherichia coli, ATCC15922; E. coli ATCC 15922; read-out: MIC
[23] = tested on: H. influenzae ATCC 49247; assay: MIC against H. influenzae ATCC 49247; details: Haemophilus influenzae, ATCC49247; H. influenzae ATCC 49247; read-out: MIC
[24] = tested on: E. coli MP-74 LptD mutant; assay: MIC against E. coli MP-74 LptD mutant; details: Escherichia coli
[25] = S. aureus MMX 3035 cErmA, read-out: MIC
[26] = K. pneumoniae ATCC 10031, read-out: MIC

Row | Structure (SMILES) | MIC [1] [µg/mL] | MIC [2] [µg/mL] | MIC [3] [µg/mL] | MIC [4] [µg/mL] | MIC [5] [µg/mL] | MIC [6] [µg/mL] | MIC [7] [µg/mL] | MIC [8] [µg/mL] | MIC [12] [µg/mL] | MIC [19] [µg/mL] | further results
1 | CSC1O[C@H]([C@H](NC(=O)[C@H]2NC[C@@H]3CNCCO[C@H]32)[C@H](C)Cl)C(O)[C@@H](O)[C@H]1O (stereo partly drawn) [FSA-503001] | > 64 | > 64 | > 64 | > 64 | > 64 | > 64 | > 64 | – | – | – | –
2 | C=CC1=CCO[C@@H]2[C@H](CN[C@@H]2C(=O)N[C@H]([C@H](C)Cl)[C@H]2OC(SC)[C@H](O)[C@H](O)C2O)C1 (stereo partly drawn) [FSA-507041] | – | 0.5 (≈ 1.08 µM) | – | > 32 | > 32 | – | – | 0.06 (≈ 0.13 µM) | < 0.03 | < 0.03 | MIC [9]: > 32 µg/mL; MIC [10]: > 32 µg/mL; MIC [11]: > 32 µg/mL; MIC [13]: 2 µg/mL (≈ 4.32 µM); MIC [14]: > 32 µg/mL; MIC [15]: 0.5 µg/mL (≈ 1.08 µM); MIC [16]: > 32 µg/mL; MIC [17]: 2 µg/mL (≈ 4.32 µM); MIC [18]: > 32 µg/mL; MIC [20]: 0.5 µg/mL (≈ 1.08 µM)
3 | CSC1O[C@H]([C@H](NC(=O)[C@H]2NC[C@@H]3CN(C)CCO[C@H]32)[C@H](C)Cl)C(O)[C@@H](O)[C@H]1O (stereo partly drawn) [FSA-503002] | > 64 | > 64 | > 64 | > 64 | > 64 | > 64 | > 64 | – | – | – | –
4 | C=CCOC(=O)N1CCO[C@@H]2[C@H](CN[C@@H]2C(=O)N[C@H]([C@H](C)Cl)[C@H]2OC(SC)[C@H](O)[C@H](O)C2O)C1 (stereo partly drawn) [FSA-503073] | – | – | > 64 | > 64 | > 64 | > 64 | > 64 | – | – | – | –
5 | CSC1O[C@H]([C@H](NC(=O)[C@H]2NC[C@@H]3C[C@@H](c4cccc(F)c4)CCO[C@H]32)[C@H](C)Cl)C(O)[C@@H](O)[C@H]1O (stereo partly drawn) [FSA-511077] | 0.23 (≈ 0.431 µM) | – | – | – | – | 4 (≈ 7.5 µM) | – | ≤ 0.06 | ≤ 0.06 | ≤ 0.06 | MIC [9, 25]: > 64 µg/mL; MIC [21]: 8 µg/mL (≈ 15 µM); MIC [13]: 0.5 µg/mL (≈ 0.938 µM); MIC [22]: > 64 µg/mL; MIC [7, 26]: 8 µg/mL (≈ 15 µM)
6 | CSC1O[C@H]([C@H](NC(=O)[C@H]2NC[C@@H]3CN(Cc4ccc(N)nc4)CCO[C@H]32)[C@H](C)Cl)C(O)[C@@H](O)[C@H]1O (stereo partly drawn) [FSA-504050] | – | – | > 64 | > 64 | > 64 | > 64 | > 64 | – | – | – | –
7 | CCCN1CCO[C@@H]2[C@H](CN[C@@H]2C(=O)N[C@H]([C@H](C)Cl)[C@H]2OC(SC)[C@H](O)[C@H](O)C2O)C1 (stereo partly drawn) [FSA-503003] | 2 (≈ 4.15 µM) | 4 (≈ 8.3 µM) | > 64 | > 64 | > 64 | > 64 | > 64 | – | – | – | MIC [20]: 4 µg/mL (≈ 8.3 µM)
8 | CSC1O[C@H]([C@H](NC(=O)[C@H]2NC[C@@H]3C[C@@H](CCc4cccc(F)c4)CCO[C@H]32)[C@H](C)Cl)C(O)[C@@H](O)[C@H]1O (stereo partly drawn) [FSA-510022] | – | – | – | – | – | 4 (≈ 7.13 µM) | – | ≤ 0.06 | ≤ 0.06 | ≤ 0.06 | MIC [9, 25]: 2 µg/mL (≈ 3.56 µM); MIC [21]: 4 µg/mL (≈ 7.13 µM); MIC [23]: 1 µg/mL (≈ 1.78 µM); MIC [24]: 4 µg/mL (≈ 7.13 µM); MIC ([16]; S. pyogenes MMX 946 MacRes, read-out: MIC): 0.5 µg/mL (≈ 0.891 µM); MIC ([18]; E. faecalis MMX 847 MacRes, read-out: MIC): 2 µg/mL (≈ 3.56 µM); MIC [7, 26]: 2 µg/mL (≈ 3.56 µM)
